According to the supplement of paper PMC10307832:

How the values were obtained:
Assay in all cases: relative viability (nuclei count vs DMSO), 5 days (fraction); higher = more cells survive
[1] = compound: Cc1ccc(C(=O)Nc2ccc(CN3CCN(C)CC3)c(C(F)(F)F)c2)cc1C#Cc1cnc2cccnn12 [Ponatinib] + Nc1ncn([C@H]2C[C@H](O)[C@@H](CO)O2)c(=O)n1 [Decitabine] (partner 2 µM)
Outline: (§1)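 Cells from lung cancer lines were seeded into 1536-well plates and, one day later, dosed by pin tool. Treatments were either a single drug or a fixed dose of an anchor drug with five library-drug doses (not always all listed) in √10 steps. After 5 days, nuclei were stained in a one-step fixation (final 0.05% Triton X-100, 1% formaldehyde, 1 ug/ml Hoechst) and counted on 4× images, and relative viability is the treated-to-vehicle nuclei ratio, as the median of duplicate plates.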

[2] = compound: Cc1ccc(Nc2nccc(N(C)c3ccc4c(C)n(C)nc4c3)n2)cc1S(N)(=O)=O [Pazopanib] + C[C@]1(O)C[C@@H](c2nc(-c3ccc4ccc(-c5ccccc5)nc4c3)c3c(N)nccn32)C1 [Linsitinib] (partner 1 µM)
Outline: as §1

[3] = compound: Cc1ccc(C(=O)Nc2ccc(CN3CCN(C)CC3)c(C(F)(F)F)c2)cc1C#Cc1cnc2cccnn12 [Ponatinib]
Outline: (§2)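 Viability was defined as treated-well nuclei divided by vehicle-well nuclei, with the median taken over replicate plates. Cells from lung cancer lines sat overnight at 37 °C in 1536-well plates, received five √10-spaced library-drug doses by pinning on vehicle-anchored plates, and grew 5 days without medium change before one-step fixation, permeabilisation and Hoechst staining, 4× imaging and MetaXpress nuclear counts. Only plates with control CV under 25% and at least one doubling were kept.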

[4] = compound: Cc1ccc(Nc2nccc(N(C)c3ccc4c(C)n(C)nc4c3)n2)cc1S(N)(=O)=O [Pazopanib]
Outline: as §2

For UMC-11, which relative viability ([1]; first compound 0.006325 µM) is on record?
The relative viability was 0.595.

And the relative viability ([1]; first compound 0.06325 µM)?
Its relative viability is 0.709.

What about the relative viability ([1]; first compound 0.2 µM) of the same cell line?
Its relative viability is 0.575.

And the relative viability ([2]; first compound 0.01 µM)?
Its relative viability is 0.974.

What about the relative viability ([2]; first compound 0.03162 µM) of the same cell line?
The relative viability was 1.06.

What about the relative viability ([2]; first compound 0.1 µM) of the same cell line?
Its relative viability is 1.1.

What about the relative viability ([2]; first compound 0.3162 µM) of the same cell line?
Its relative viability is 1.

What about the relative viability ([2]; first compound 1 µM) of the same cell line?
Its relative viability is 1.11.

And the relative viability ([3]; 0.002 µM)?
Its relative viability is 0.914.

And the relative viability ([3]; 0.006325 µM)?
Its relative viability is 0.945.

What about the relative viability ([3]; 0.06325 µM) of the same cell line?
Its relative viability is 1.07.

And the relative viability ([3]; 0.2 µM)?
The relative viability was 0.99.

And the relative viability ([4]; 0.01 µM)?
The relative viability was 0.828.

What about the relative viability ([4]; 0.03162 µM) of the same cell line?
The relative viability was 1.01.

And the relative viability ([4]; 0.1 µM)?
The relative viability was 1.01.

And the relative viability ([4]; 0.3162 µM)?
The relative viability was 1.03.

And the relative viability ([4]; 1 µM)?
The relative viability was 1.11.
